Measurements reported in patent US12343326B2, “Psychoactive medicines and their use for treating psychiatric and neurological conditions and disorders” (Transcend Therapeutics, Inc., priority 2021, dated 2025).

Assays:
Assay in all cases: β-arrestin based GPCR screen (PathHunter / GPCRmax), antagonist mode
168 GPCRs [1] = biological target: 168 GPCRs (Homo sapiens, UniProt O43613)
168 GPCRs [2] = biological target: 168 GPCRs (Homo sapiens, UniProt P08913); settings: ADRA2A, Antagonist
168 GPCRs [3] = biological target: 168 GPCRs (Homo sapiens, UniProt P11229); settings: CHRM1, Antagonist
168 GPCRs [4] = biological target: 168 GPCRs (Homo sapiens, UniProt P25103)
168 GPCRs [5] = biological target: 168 GPCRs (Homo sapiens, UniProt P30559); settings: OXTR
168 GPCRs [6] = biological target: 168 GPCRs (Homo sapiens, UniProt P30872)
168 GPCRs [7] = biological target: 168 GPCRs (Homo sapiens, UniProt P32238); settings: CCKAR, Antagonist
168 GPCRs [8] = biological target: 168 GPCRs (Homo sapiens, UniProt P32239); settings: CCKBR, Antagonist
168 GPCRs [9] = biological target: 168 GPCRs (Homo sapiens, UniProt P33032); settings: MC5R
168 GPCRs [10] = biological target: 168 GPCRs (Homo sapiens, UniProt P34998)
168 GPCRs [11] = biological target: 168 GPCRs (Homo sapiens, UniProt P35346)
168 GPCRs [12] = biological target: 168 GPCRs (Homo sapiens, UniProt P35408)
168 GPCRs [13] = biological target: 168 GPCRs (Homo sapiens, UniProt P37288); settings: AVPR1A, Antagonist
168 GPCRs [14] = biological target: 168 GPCRs (Homo sapiens, UniProt P43115)
168 GPCRs [15] = biological target: 168 GPCRs (Homo sapiens, UniProt P43220); settings: GLP1R
168 GPCRs [16] = biological target: 168 GPCRs (Homo sapiens, UniProt P48145)
168 GPCRs [17] = biological target: 168 GPCRs (Homo sapiens, UniProt P51679); settings: CCR4, Antagonist
168 GPCRs [18] = biological target: 168 GPCRs (Homo sapiens, UniProt P51681); settings: CCR5, CCR5, Antagonist
168 GPCRs [19] = biological target: 168 GPCRs (Homo sapiens, UniProt Q8TCW9)
168 GPCRs [20] = biological target: 168 GPCRs (Homo sapiens, UniProt Q96LB2)
168 GPCRs [21] = biological target: 168 GPCRs (Homo sapiens, UniProt Q99788); settings: CMKLR1, Antagonist
168 GPCRs [22] = biological target: 168 GPCRs (Homo sapiens, UniProt Q9HB89); settings: NMU1R
168 GPCRs [23] = biological target: 168 GPCRs (Homo sapiens, UniProt Q9UBY5)

Sequence of 168 GPCRs (Homo sapiens, UniProt P43220) (P43220 24-463): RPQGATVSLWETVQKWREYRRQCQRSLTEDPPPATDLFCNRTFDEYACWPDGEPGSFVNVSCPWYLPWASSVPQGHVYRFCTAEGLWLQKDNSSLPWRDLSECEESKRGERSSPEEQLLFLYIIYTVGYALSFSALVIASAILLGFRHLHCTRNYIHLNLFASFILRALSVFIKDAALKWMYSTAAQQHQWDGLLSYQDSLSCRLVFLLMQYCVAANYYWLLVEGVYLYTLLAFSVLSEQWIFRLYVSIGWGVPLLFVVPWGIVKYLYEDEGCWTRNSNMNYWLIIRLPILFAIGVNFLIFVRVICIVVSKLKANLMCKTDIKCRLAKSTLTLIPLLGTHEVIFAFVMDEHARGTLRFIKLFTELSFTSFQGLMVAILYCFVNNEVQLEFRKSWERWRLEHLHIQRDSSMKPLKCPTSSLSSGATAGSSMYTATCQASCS
Sequence of 168 GPCRs (Homo sapiens, UniProt P43115) (P43115 whole entry): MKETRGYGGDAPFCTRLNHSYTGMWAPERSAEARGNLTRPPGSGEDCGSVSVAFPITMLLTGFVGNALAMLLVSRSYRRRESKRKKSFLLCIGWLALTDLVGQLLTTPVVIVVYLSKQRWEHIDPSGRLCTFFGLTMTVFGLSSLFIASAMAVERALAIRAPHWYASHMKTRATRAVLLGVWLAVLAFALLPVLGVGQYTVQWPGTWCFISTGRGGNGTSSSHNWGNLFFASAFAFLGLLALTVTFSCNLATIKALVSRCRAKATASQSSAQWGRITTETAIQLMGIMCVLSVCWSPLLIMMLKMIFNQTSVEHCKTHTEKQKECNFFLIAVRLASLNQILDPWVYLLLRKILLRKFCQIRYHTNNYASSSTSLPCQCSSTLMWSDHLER
Sequence of 168 GPCRs (Homo sapiens, UniProt P51679) (P51679 whole entry): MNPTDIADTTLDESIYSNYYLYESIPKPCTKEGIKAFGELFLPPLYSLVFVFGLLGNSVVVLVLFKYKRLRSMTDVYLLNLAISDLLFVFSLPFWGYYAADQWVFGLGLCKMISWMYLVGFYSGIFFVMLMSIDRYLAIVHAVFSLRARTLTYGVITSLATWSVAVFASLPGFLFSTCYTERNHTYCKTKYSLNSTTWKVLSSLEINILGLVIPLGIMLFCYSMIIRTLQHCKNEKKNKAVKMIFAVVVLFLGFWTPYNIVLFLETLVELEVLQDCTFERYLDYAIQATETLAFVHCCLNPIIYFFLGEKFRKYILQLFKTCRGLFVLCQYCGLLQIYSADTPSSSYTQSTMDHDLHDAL
Sequence of 168 GPCRs (Homo sapiens, UniProt P51681) (P51681 whole entry): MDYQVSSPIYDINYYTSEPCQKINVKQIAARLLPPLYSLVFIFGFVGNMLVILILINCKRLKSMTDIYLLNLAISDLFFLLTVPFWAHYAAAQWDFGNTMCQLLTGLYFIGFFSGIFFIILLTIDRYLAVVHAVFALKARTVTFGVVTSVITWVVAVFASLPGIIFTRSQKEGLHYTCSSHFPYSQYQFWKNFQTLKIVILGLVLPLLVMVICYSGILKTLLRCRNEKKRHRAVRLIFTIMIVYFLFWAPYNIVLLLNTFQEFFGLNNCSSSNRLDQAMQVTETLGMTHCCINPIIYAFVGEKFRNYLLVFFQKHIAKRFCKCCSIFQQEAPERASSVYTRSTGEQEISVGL
Sequence of 168 GPCRs (Homo sapiens, UniProt P08913) (P08913 whole entry): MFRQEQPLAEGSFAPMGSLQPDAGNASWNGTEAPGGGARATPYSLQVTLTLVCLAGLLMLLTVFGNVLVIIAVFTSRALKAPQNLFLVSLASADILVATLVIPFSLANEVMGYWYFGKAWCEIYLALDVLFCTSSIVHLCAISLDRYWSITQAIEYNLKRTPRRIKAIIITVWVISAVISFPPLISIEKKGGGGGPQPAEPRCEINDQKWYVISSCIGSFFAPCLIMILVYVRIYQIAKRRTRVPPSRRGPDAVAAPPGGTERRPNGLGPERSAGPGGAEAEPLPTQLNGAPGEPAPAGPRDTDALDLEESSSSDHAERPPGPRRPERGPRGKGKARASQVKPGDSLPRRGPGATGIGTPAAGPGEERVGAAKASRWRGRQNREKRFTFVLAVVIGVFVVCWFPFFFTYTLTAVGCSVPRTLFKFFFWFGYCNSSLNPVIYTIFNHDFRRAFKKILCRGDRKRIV
Sequence of 168 GPCRs (Homo sapiens, UniProt P30559) (P30559 whole entry): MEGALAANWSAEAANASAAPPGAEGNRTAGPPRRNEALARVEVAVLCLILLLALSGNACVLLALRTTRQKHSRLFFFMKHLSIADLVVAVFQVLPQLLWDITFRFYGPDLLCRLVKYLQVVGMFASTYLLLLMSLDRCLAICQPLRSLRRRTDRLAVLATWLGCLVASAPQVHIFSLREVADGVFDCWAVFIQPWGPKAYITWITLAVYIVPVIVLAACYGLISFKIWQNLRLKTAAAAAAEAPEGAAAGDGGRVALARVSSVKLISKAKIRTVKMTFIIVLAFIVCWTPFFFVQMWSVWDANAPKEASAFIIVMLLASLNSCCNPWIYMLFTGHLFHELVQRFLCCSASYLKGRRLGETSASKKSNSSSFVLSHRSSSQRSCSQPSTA
Sequence of 168 GPCRs (Homo sapiens, UniProt P35346) (P35346 whole entry): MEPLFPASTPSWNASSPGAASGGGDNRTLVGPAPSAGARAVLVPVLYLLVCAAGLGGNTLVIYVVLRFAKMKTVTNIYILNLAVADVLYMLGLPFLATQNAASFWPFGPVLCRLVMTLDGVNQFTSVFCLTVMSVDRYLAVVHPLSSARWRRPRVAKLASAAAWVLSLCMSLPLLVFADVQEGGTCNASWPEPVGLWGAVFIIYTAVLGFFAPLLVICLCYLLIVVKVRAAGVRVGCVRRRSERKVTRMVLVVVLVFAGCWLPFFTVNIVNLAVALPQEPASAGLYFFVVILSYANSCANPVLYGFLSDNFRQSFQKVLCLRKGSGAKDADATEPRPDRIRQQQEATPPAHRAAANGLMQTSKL
Sequence of 168 GPCRs (Homo sapiens, UniProt O43613) (O43613 whole entry): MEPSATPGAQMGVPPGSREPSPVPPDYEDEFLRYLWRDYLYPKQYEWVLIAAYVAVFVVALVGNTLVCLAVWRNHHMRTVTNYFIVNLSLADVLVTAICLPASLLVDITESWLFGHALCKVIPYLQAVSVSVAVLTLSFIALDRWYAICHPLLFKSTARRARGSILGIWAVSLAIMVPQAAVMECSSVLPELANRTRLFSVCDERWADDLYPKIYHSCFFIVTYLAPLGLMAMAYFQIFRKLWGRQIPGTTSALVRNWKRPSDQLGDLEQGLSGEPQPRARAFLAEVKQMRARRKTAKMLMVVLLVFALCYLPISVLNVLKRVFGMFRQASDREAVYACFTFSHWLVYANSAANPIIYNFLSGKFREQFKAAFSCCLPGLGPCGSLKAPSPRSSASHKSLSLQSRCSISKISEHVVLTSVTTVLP
Sequence of 168 GPCRs (Homo sapiens, UniProt P34998) (P34998 24-415): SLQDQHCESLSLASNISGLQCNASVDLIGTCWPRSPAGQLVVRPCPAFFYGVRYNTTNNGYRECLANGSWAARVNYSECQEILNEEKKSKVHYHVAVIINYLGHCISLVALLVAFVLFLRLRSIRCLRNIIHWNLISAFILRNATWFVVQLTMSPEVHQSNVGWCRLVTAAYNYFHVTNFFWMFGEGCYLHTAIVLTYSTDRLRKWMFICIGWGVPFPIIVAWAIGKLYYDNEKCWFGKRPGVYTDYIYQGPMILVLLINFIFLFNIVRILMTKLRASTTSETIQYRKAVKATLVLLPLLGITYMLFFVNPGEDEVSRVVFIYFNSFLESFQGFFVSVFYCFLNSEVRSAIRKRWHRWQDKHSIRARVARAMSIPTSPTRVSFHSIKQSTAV
Sequence of 168 GPCRs (Homo sapiens, UniProt P30872) (P30872 whole entry): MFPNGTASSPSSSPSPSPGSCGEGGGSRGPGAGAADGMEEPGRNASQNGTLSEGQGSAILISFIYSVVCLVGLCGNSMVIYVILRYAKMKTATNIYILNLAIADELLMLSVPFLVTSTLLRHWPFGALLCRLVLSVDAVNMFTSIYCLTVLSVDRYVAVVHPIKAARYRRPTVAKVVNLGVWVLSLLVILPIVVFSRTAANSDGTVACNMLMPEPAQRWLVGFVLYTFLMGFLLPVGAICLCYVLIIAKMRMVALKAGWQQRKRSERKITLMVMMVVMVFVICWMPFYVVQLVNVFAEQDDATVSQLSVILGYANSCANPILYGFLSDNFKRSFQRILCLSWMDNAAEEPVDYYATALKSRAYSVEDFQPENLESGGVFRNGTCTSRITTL
Sequence of 168 GPCRs (Homo sapiens, UniProt P32238) (P32238 whole entry): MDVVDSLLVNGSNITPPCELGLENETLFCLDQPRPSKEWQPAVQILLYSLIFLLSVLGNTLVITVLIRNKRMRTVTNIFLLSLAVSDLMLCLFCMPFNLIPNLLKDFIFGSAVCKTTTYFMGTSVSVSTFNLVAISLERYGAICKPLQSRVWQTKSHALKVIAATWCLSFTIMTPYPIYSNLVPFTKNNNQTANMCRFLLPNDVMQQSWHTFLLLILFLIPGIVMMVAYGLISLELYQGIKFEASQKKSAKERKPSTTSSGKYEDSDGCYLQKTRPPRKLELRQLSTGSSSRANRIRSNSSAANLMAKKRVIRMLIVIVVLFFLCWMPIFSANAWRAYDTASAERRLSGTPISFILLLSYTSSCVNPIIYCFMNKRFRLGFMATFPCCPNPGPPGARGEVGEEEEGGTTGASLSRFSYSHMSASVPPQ
Sequence of 168 GPCRs (Homo sapiens, UniProt Q9HB89) (Q9HB89 whole entry): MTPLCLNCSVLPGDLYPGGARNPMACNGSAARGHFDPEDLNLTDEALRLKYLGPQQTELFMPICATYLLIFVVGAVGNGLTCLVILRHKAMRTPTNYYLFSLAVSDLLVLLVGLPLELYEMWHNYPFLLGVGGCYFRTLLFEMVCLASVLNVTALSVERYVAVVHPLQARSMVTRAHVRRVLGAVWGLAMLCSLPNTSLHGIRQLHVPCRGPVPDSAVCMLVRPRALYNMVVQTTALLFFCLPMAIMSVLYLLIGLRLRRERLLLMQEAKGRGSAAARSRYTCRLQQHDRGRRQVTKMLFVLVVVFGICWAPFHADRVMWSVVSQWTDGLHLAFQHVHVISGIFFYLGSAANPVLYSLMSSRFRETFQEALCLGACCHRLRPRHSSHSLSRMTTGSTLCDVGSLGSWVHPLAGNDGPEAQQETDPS

CNC(C)C(=O)c1ccc2c(c1)OCO2 (stereo not shown) [methylone, 3,4-methylenedioxy-N-methylcathinone]
activity at 10 µM (168 GPCRs [1]; HCRTR1, Antagonist mode, 10 uM): 1.2%
activity at 1 µM (168 GPCRs [1]; HCRTR1, Antagonist, 1 uM): 2.3%
activity at 1 µM (168 GPCRs [2]; 1 uM): -4.6%
activity at 10 µM (168 GPCRs [2]; 10 uM): 1.9%
activity at 1 µM (168 GPCRs [3]; 1 uM): 15.8%
activity at 10 µM (168 GPCRs [3]; 10 uM): 2%
activity at 10 µM (168 GPCRs [4]; TACR1, Antagonist mode, 10 uM): 8.9%
activity at 1 µM (168 GPCRs [4]; TACR1, Antagonist, 1 uM): 15.2%
activity at 10 µM (168 GPCRs [5]; Antagonist mode, 10 uM): 6.9%
activity at 1 µM (168 GPCRs [5]; Antagonist, 1 uM): 12.7%
activity at 10 µM (168 GPCRs [6]; SSTR1, Antagonist mode, 10 uM): 20.9%
activity at 1 µM (168 GPCRs [6]; SSTR1, Antagonist, 1 uM): 32.4%
activity at 1 µM (168 GPCRs [7]; 1 uM): -4.3%
activity at 10 µM (168 GPCRs [7]; 10 uM): -3.3%
activity at 1 µM (168 GPCRs [8]; 1 uM): -1.1%
activity at 10 µM (168 GPCRs [8]; 10 uM): -2.4%
activity at 10 µM (168 GPCRs [9]; Antagonist mode, 10 uM): -6.3%
activity at 1 µM (168 GPCRs [9]; Antagonist, 1 uM): 1.7%
activity at 10 µM (168 GPCRs [10]; CRHR1, Antagonist mode, 10 uM): 0.6%
activity at 1 µM (168 GPCRs [10]; CRHR1, Antagonist, 1 uM): 1.3%
activity at 10 µM (168 GPCRs [11]; SSTR5, Antagonist mode, 10 uM): 5.7%
activity at 1 µM (168 GPCRs [11]; SSTR5, Antagonist, 1 uM): 14.7%
activity at 10 µM (168 GPCRs [12]; PTGER4, Antagonist mode, 10 uM): 4.3%
activity at 1 µM (168 GPCRs [12]; PTGER4, Antagonist, 1 uM): 10.1%
activity at 1 µM (168 GPCRs [13]; 1 uM): -3%
activity at 10 µM (168 GPCRs [13]; 10 uM): 2.8%
activity at 10 µM (168 GPCRs [14]; PTGER3, Antagonist mode, 10 uM): 5.7%
activity at 1 µM (168 GPCRs [14]; PTGER3, Antagonist, 1 uM): -6.2%
activity at 10 µM (168 GPCRs [15]; Antagonist mode, 10 uM): -0.9%
activity at 1 µM (168 GPCRs [15]; Antagonist, 1 uM): 3.4%
activity at 10 µM (168 GPCRs [16]; NPBWR1, Antagonist mode, 10 uM): 25.1%
activity at 1 µM (168 GPCRs [16]; NPBWR1, Antagonist, 1 uM): 17.1%
activity at 1 µM (168 GPCRs [17]; 1 uM): 10%
activity at 10 µM (168 GPCRs [17]; 10 uM): 9.5%
activity at 1 µM (168 GPCRs [18]; 1 uM): 1.7%
activity at 10 µM (168 GPCRs [18]; 10 uM): -0.5%
activity at 10 µM (168 GPCRs [19]; PROKR1, Antagonist mode, 10 uM): 3.3%
% Activity (168 GPCRs [19]; PROKR1, Antagonist): 8.7%
activity at 10 µM (168 GPCRs [20]; MRGPRX1, Antagonist mode, 10 uM): -10.2%
activity at 1 µM (168 GPCRs [20]; MRGPRX1, Antagonist, 1 uM): -6.5%
activity at 1 µM (168 GPCRs [21]; 1 uM): -0.2%
activity at 10 µM (168 GPCRs [21]; 10 uM): -5.6%
activity at 10 µM (168 GPCRs [22]; Antagonist mode, 10 uM): -9.3%
activity at 1 µM (168 GPCRs [22]; Antagonist, 1 uM): -6.7%
activity at 10 µM (168 GPCRs [23]; EDG7, Antagonist mode, 10 uM): 17.9%
activity at 1 µM (168 GPCRs [23]; EDG7, Antagonist, 1 uM): 19.5%
